The text below walks through data of patent US20040265979A1, “Novel macrophage foam cell formation inhibitor fka-25 and process for producing the same” (priority 2004, published 2004).

The subject of data set [1] is Macrophages isolated from mice peritoneum. Kind of data set: Formation of cholesteryl ester and lipid droplet in mouse intraperitoneal macrophages ([1-14C]oleic acid incorporation, TLC). In kind it is cell-based. The conditions noted are these: Macrophage, mouse peritoneal macrophages, liposome + [1-14C]oleic acid. The source says:
Inhibitory action of FKA-25 substance of the present invention against intraperitoneal formation of cholesteryl ester and lipid droplet in mice is explained as follows.
Formation of cholesteryl ester and lipid droplet in mice in the intraperitoneal macrophage was examined according to the method of Namatame et al. (J. Biochem. 125, 319-327, 1999).
Macrophages isolated from mice peritoneum were suspended in Dulbecco modified Eagle's medium containing 6.8% lipoprotein deficient serum (6.8% LPDS-DMEM) 2.0×10^6 cells/ml, and plated each 0.25 ml into 48 well microplate (Corning Inc.) or slide chamber (Nunc Inc.).
The plate was incubated in 5% carbon dioxide incubator at 37° C. for 2 hours, then cells without attachment were removed by washing with Hank's solution. After washing, cells were incubated with 6.8% LPDS-DMEM for 1 hour, and FKA-25 substance (2.5 μl methanol), liposome (a composition consisting of phosphatidylcholine/phosphatidylserine/dicetylphosphate/cholesterol=10:10:2:15 (n mol) in 0.3 M glucose 10 μl) and [1-^14C]oleic acid (5 μl, 0.05 μCi, 1 nmol) were added, then incubated for 14 hours.
Cultured supernatant was removed off and intracellular neutral lipid was extracted twice by adding hexane 0.6 ml and isopropanol 0.4 ml. […] The separated [^14C]cholesteryl oleate and [^14C]triacylglycerol were quantitatively measured by using radio scanner (Ambis Inc., the U.S.). […]

The nature of data set [2]: Physico-chemical properties: solubility in solvents, acidity/basicity. In kind it is physicochemical. The source says: Physico-chemical properties of FKA-25 substance of the present invention are as follows.

With `CC(C)=CCc1c(C(O)C2OC2(C)C)ccc2[nH]c3c(c12)CC1CCC2(O)C(C)(C)C(=O)CCC2(C)C31C` (centres unmarked) [FKA-25 substance], the inhibition at 3.2 µM in data set [1] (at 3.2 μM, 14 hours, read-out: inhibition of the formation of triacylglycerol) is around 50%. In addition, in data set [1] (incubated for 14 hours, read-out: IC50, inhibition of the formation of [14C]cholesteryl oleate), the concentration for half-maximal inhibition (IC50) came to 4 µM. Moreover, the “Differentiation from acidity, neutrality and basicity” value in data set [2] is “weak basic substance”. In addition, the Solubility in solvents result in data set [2] (in methanol, acetone, chloroform and ethyl acetate) is listed as “Soluble”; in data set [2] (in water and hexane), “slightly soluble”.
